6 compounds from ChEMBL document CHEMBL6182916, “Unexpected Discovery of a Novel Triphenylphosphonium Alkylalcohol That Triggers Cancer Cell Death via Mitophagy and Ferroptosis” (J Med Chem, 2025) can be followed below.

Molecules are shown by their SMILES. pIC50: −log10 of the molar value. Calls of active or inactive are those of the source. The rule behind the calls is not given here. Bounds are passed on as bounds.

In data set [1] the test system is A-375. Put plainly: Anticancer activity against human A-375 cells assessed as inhibition of cell growth by MTT assay. The class given is functional, cell-based. For orientation: Tetrazolium assays rely on reduction of a dye to a coloured formazan, in cell work by metabolically active cells.
Data set [2] deals with T1, Heat shock protein 75 kDa, mitochondrial (Homo sapiens) (UniProt Q12931).
T1 sequence (whole entry): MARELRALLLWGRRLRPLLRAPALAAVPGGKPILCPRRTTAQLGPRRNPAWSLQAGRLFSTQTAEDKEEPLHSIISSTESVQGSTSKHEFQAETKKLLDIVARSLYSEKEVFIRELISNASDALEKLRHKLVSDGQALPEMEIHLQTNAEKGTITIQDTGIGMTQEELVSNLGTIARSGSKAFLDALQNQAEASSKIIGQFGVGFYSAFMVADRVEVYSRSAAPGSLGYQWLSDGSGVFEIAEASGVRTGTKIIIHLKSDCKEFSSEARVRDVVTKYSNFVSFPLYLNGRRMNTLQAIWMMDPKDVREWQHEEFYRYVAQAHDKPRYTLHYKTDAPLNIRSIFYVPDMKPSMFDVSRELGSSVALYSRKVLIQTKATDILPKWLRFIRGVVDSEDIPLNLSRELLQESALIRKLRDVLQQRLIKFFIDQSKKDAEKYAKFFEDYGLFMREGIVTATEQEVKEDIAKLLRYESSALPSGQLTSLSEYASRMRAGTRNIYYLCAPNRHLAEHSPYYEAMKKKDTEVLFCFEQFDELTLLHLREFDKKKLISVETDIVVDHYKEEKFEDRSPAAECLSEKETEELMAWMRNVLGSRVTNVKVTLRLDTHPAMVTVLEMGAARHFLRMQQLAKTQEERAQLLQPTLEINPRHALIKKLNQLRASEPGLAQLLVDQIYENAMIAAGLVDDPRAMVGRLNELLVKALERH
As to the kind of experiment: Inhibition of human TRAP1 assessed as fold increase in ATPase activity at 20 uM.

Data set [3] can be described thus: Drug localization in mitochondria of human HCC827 cells assessed as increase in green fluorescence by measuring pearson correlation coefficient at 10 uM incubated for 10 mins by mito-tracker green dye based confocal scanning microscopy analysis. The class given is ADME. The note with it: hcc827, 10 min.
A short description of data set [4]: Drug uptake in human HCC827 cells mitochondria assessed as increase in fluorescence intensity at 10 uM by fluorescence emission spectroscopy analysis. The class given is ADME. To be noted: hcc827, 10 µM.
A short description of data set [5]: Drug metabolism in human HCC827 cells mitochondria assessed as 2-(2-(4-hydroxystyryl)-4H-chromen-4-ylidene)malononitrile hydrolysis at 10 uM incubated for 5 mins by fluorescence emission spectroscopy analysis. The class given is ADME. To be noted: hcc827, 5 min.
For data set [6], the system named is HCC827. As to the kind of experiment: Antitumor activity against human HCC827 cells xenografted in female nude mouse model assessed as suppression of tumor growth at 100 mg/kg, ip measured every two days for 14 days. The class given is functional, organism-based. The note with it: time 14.0 day.
A short description of data set [7]: Antiproliferative activity against human LO2 cells assessed as inhibition of cell growth measured after 72 hrs by MTT assay. The class given is toxicity, cell-based, L02.
Data set [8] can be described thus: Antiproliferative activity against human HUVEC cells assessed as inhibition of cell growth measured after 72 hrs by MTT assay. The class given is toxicity, cell-based.
Data set [9] in a line: Antiproliferative activity against HEK293T cells assessed as inhibition of cell growth measured after 72 hrs by MTT assay. The class given is toxicity, cell-based, HEK-293T. The note with it: human.
Data set [10] in a line: Antiproliferative activity against human BEAS-2B cells assessed as inhibition of cell growth measured after 72 hrs by MTT assay. The class given is toxicity, cell-based.
For another data set, the system named is NCI-H1975. As to the kind of experiment: Antiproliferative activity against human NCI-H1975 cells assessed as inhibition of cell growth measured after 72 hrs by MTT assay. The class given is functional, cell-based. To be noted: NCI-H1975, 72 h.
The subject of data set [11] is HCC827. Put plainly: Antiproliferative activity against human HCC827 cells assessed as inhibition of cell growth measured after 72 hrs by MTT assay. The class given is functional, cell-based. To be noted: HCC827, 72 h.
The nature of data set [12]: Antiproliferative activity against human Osimertinib-resistant HCC827 cell assessed as inhibition of cell growth measured after 72 hrs by MTT assay. The class given is functional, cell-based.
For a further data set, the system named is A549. As to the kind of experiment: Antiproliferative activity against human A549 cells assessed as inhibition of cell growth measured after 72 hrs by MTT assay. The class given is functional, cell-based. To be noted: A549, 72 h.
In data set [13] the test system is A-375. Put plainly: Antiproliferative activity against human A-375 cells assessed as inhibition of cell growth measured after 72 hrs by MTT assay. The class given is functional, cell-based. To be noted: A-375, 72 h.
Another data set deals with NCI-H1650. Put plainly: Antiproliferative activity against human NCI-H1650 cells assessed as inhibition of cell growth measured after 72 hrs by MTT assay. The class given is functional, cell-based. To be noted: NCI-H1650, 72 h.
In the next data set the test system is MCF7. As to the kind of experiment: Antiproliferative activity against human MCF7 cells assessed as inhibition of cell growth measured after 72 hrs by MTT assay. The class given is functional, cell-based. The note with it: MCF7, 72 h.
In another data set the test system is HCT-116. As to the kind of experiment: Antiproliferative activity against human HCT-116 cells assessed as inhibition of cell growth measured after 72 hrs by MTT assay. The class given is functional, cell-based. The note with it: HCT-116, 72 h.
Another data set deals with MDA-MB-231. As to the kind of experiment: Antiproliferative activity against human MDA-MB-231 cells assessed as inhibition of cell growth measured after 72 hrs by MTT assay. The class given is functional, cell-based. To be noted: MDA-MB-231, 72 h.
The next data set has as its system SK-LU-1. As to the kind of experiment: Antiproliferative activity against human SK-LU-1 cells assessed as inhibition of cell growth measured after 72 hrs by MTT assay. The class given is functional, cell-based. The note with it: SK-LU-1, 72 h.
The test system of another data set is NCI-H460. Put plainly: Antiproliferative activity against human NCI-H460 cells assessed as inhibition of cell growth measured after 72 hrs by MTT assay. The class given is functional, cell-based. To be noted: NCI-H460, 72 h.
Another data set has as its system NCI-H1299. Put plainly: Antiproliferative activity against human NCI-H1299 cells assessed as inhibition of cell growth measured after 72 hrs by MTT assay. The class given is functional, cell-based. To be noted: NCI-H1299, 72 h.
Data set [14] concerns Osimertinib-resistant NCI-H1975 cell. As to the kind of experiment: Antiproliferative activity against human Osimertinib-resistant NCI-H1975 cell assessed as inhibition of cell growth measured after 72 hrs by MTT assay. The class given is functional, cell-based.
Data set [15] is described as follows: Drug accumulation in mitochondria of human HCC827 cells at 10 uM incubated for 5 mins. The class given is ADME. To be noted: hcc827, 5 min.
Data set [16] in a line: Drug accumulation in mitochondria of human HCC827 cells at 10 uM incubated for 10 mins in presence of CCCP by RP-HPLC-UV analysis. The class given is ADME. To be noted: hcc827, 10 min.
The subject of a further data set is Mitochondrial membrane. Put plainly: Induction of mitochondrial membrane depolarization in human HCC827 cells assessed as increase in J-monomer ratio at 0.5 uM incubated for 4 hrs by JC-1 staining based flow cytometric analysis. The class given is cell membranes. A general note: Flow cytometry measures light scatter and fluorescence of single cells or particles in a stream.

Data set [17] concerns HCC827. Put plainly: Induction of mitochondrial dysfunction in human HCC827 cells assessed as cytochrome C release in cytoplasm at 1 uM measured after 72 hrs by laser scanning confocal fluorescence microscopic analysis. The class given is functional, cell-based.
Data set [18] concerns HCC827. Put plainly: Induction of cell cycle arrest in human HCC827 cells assessed as accumulation of cells at G1 phase at 0.4 uM incubated for 24 hrs by PI staining based flow cytometry analysis (reference value: 66.44%). The class given is functional.
Data set [19] deals with HCC827. Put plainly: Induction of cell cycle arrest in human HCC827 cells assessed as accumulation of cells at G2 phase at 0.4 uM incubated for 24 hrs by PI staining based flow cytometry analysis (reference value: 7.15%). The class given is functional.
The test system of data set [20] is HCC827. As to the kind of experiment: Induction of cell cycle arrest in human HCC827 cells assessed as accumulation of cells at S phase at 0.4 uM incubated for 24 hrs by PI staining based flow cytometry analysis (reference value: 26.41%). The class given is functional.
The subject of data set [21] is HCC827. Put plainly: Induction of ROS generation in human HCC827 cells assessed as decrease in NADH content at 1 uM incubated for 4 hrs by absorbance based analysis. The class given is functional, cell-based.
Data set [22] concerns HCC827. As to the kind of experiment: Induction of ROS generation in human HCC827 cells assessed as increase in NAD+/NADH ratio at 1 uM incubated for 4 hrs by absorbance based analysis. The class given is functional, cell-based.
Data set [23] concerns HCC827. Put plainly: Induction of apoptosis in human HCC827 cells assessed as viable cells at 1.0 uM measured after 48 hrs by annexin V and PI staining based flow cytometry analysis (reference value: 96.74%). To be noted: read-out: Activity. The class given is functional.
Data set [24] has as its system HCC827. As to the kind of experiment: Induction of apoptosis in human HCC827 cells assessed as early apoptotic cells at 1 uM measured after 48 hrs by annexin V and PI staining based flow cytometry analysis (reference value: 0.70%). The class given is functional.
Data set [25] relates to HCC827. As to the kind of experiment: Induction of apoptosis in human HCC827 cells assessed as late apoptotic cells at 1 uM measured after 48 hrs by annexin V and PI staining based flow cytometry analysis (reference value: 1.29%). The class given is functional.
Data set [26] deals with HCC827. Put plainly: Induction of apoptosis in human HCC827 cells assessed as necrotic cells at 1 uM measured after 48 hrs by annexin V and PI staining based flow cytometry analysis (reference value: 1.18%). The class given is functional.
In data set [27] the test system is HCC827. Put plainly: Inhibition of colony formation in human HCC827 cells at 0.2 uM incubated for 72 hrs by crystal violet staining based analysis. The class given is functional, cell-based.

Consider `OCCCCC[P+](c1ccccc1)(c1ccccc1)c1ccccc1`, for which, in the data set with A-375 [1], the negative logarithm of the IC50 (pIC50) is under 4.40.

Take `CC1=C(C)C(=O)C(CCCCCCCCCC[P+](c2ccccc2)(c2ccccc2)c2ccccc2)=CC1=O`: the fold change (FC) in data set [2] is 1.4.

Take `N#CC(C#N)=C1C=C(/C=C/c2ccc(OC(=O)OCCCCCCCCCC[P+](c3ccc(C(F)(F)F)cc3)(c3ccc(C(F)(F)F)cc3)c3ccc(C(F)(F)F)cc3)cc2)Oc2ccccc21.[Br-]`: the Drug uptake in [3] was 0.46; in data set [4] it was “Not_active”. For the same compound, the Drug metabolism result in data set [5] is on record as “metabolite_detected”.

In the case of `COc1cc2ncnc(Nc3ccc(F)c(Cl)c3)c2cc1OCCCN1CCOCC1`, in the data set on HCC827 [6], the result was Active.

Turning to `O=C(O)CCCCC(CCSCc1ccccc1)SCc1ccccc1` (centres undefined) [CPI 613], the pIC50 in the data set on A-375 [1] was under 4.00.

Turning to `OCCCCCCCCCC[P+](c1ccccc1)(c1ccccc1)c1ccccc1.[Br-]`, the pIC50 is 6.39 with A-375 [1]; 6.49 in the data set with NCI-H1975; 6.64 with HCC827 [11]; 6.47 in data set [12]; 5.97 with A549; 6.39 with A-375 [13]. Also, the negative-log IC50 (pIC50) in the data set with NCI-H1650 was 6.15; in the data set on MCF7, 6.51; in the data set on HCT-116, 6.03; in the data set with MDA-MB-231, 6.26; with SK-LU-1, 6.27; in the data set with NCI-H460, 6.02. Further, the pIC50 in the data set on NCI-H1299 was under 5.30; in data set [14], 6.24. In addition, the IC50 at 72 h in data set [7] came out at 3120 nM; in data set [8], 2380 nM; in data set [9], 2790 nM; in [10] it was 1140 nM. Besides, the Drug uptake in data set [15] is listed as ~ 90%; in data set [16], “Not_active”. In addition, the outcome with Mitochondrial membrane and in the data set with HCC827 [17] was inactive. Also, the Activity is given as 74.82% in the data set on HCC827 [18]; 6% with HCC827 [19]; 19.19% in the data set with HCC827 [20]; 2.5% in the data set with HCC827 [24]; 4.02% in the data set with HCC827 [25]; 0.7% in the data set on HCC827 [26]. Besides, the outcome in the data set with HCC827 [21] and with HCC827 [22] was Active. For the same compound, the viability at 1 µM in the data set with HCC827 [23] was 94.1%. Besides, the inhibition entry with HCC827 [27] is “Weak_effect”.

One may read the pIC50 as the negative decadic logarithm of the IC50, by convention in mol/L. As a reminder, the IC50 is the midpoint of a concentration-inhibition curve.
